Source: patent publication US7569587B2, “Antibacterial mutilins” (Nabriva Therapeutics AG, priority 2000, dated 2009)

System: Staphylococcus
Test: Systemic infections of mice (Handbook of animal models of infection)
Assay type: in vivo
Details: parenteral or oral administration, Probit analysis
Source text: The active compounds of the present invention show e.g. activity in systemic infections of mice determined according to the Handbook of animal models of infection.
ED50=Effective dosage in mg/kg body weight per application by which 50% of the treated animals are protected from death; calculated by Probit analysis (n=8 animals/group).

Compound | ED50 (dosage by which 50% of the treated animals are protected from death)
C=CC1(C)CC(OC(=O)CSC2CCN(C(=O)[C@H](N)Cc3c[nH]cn3)C2)C2(C)C(C)CCC3(CCC(=O)C32)C(C)C1O (stereo partly drawn) [Example 6, 4-O—[(N—(R)-histidinyl-pyrrolidin-3-yl)sulfanylacetyl]mutilin] | about 11.0 mg/kg body weight
C=CC1(C)CC(OC(=O)CS[C@H]2CCCN(C(=O)[C@H](N)C(C)C)C2)C2(C)C(C)CCC3(CCC(=O)C32)C(C)C1O (stereo partly drawn) [Example 1] | ~7.0 mg/kg body weight
C=CC1(C)CC(OC(=O)CSC2CCN(C(=O)[C@H](N)C(C)C)C2)C2(C)C(C)CCC3(CCC(=O)C32)C(C)C1O (stereo partly drawn) [Example 5, 14-O—[(N-(3-methyl-2(R)-amino-butyryl)-pyrrolidine-3-yl)-sulfanylacetyl]-mutilin] | about 11.0 mg/kg body weight
